Measured values as given in paper PMC7140522, “The Pyrazolo[3,4-d]pyrimidine Derivative, SCO-201, Reverses Multidrug Resistance Mediated by ABCG2/BCRP” (Cells, 2020).
Read-outs that look alike come from different tables or passages of the source.

Legend:
CYP1A2 = assay: CYP induction in human hepatocytes, CYP1A2 mRNA; format: in vitro ADME; conditions: plated human hepatocytes
ABCG2 (BCRP) = target: T1, ABCG2 (BCRP) (Homo sapiens, UniProt Q9UNQ0); assay: Hoechst 33342 accumulation assay in MDCK-II-BCRP cells; format: cell-based; conditions: MDCK cells overexpressing BCRP, steady-state fluorescence
T1 construct: expressed in transfected cells; host or cells: MDCK-II (canine kidney)
T1 sequence (Q9UNQ0 whole entry): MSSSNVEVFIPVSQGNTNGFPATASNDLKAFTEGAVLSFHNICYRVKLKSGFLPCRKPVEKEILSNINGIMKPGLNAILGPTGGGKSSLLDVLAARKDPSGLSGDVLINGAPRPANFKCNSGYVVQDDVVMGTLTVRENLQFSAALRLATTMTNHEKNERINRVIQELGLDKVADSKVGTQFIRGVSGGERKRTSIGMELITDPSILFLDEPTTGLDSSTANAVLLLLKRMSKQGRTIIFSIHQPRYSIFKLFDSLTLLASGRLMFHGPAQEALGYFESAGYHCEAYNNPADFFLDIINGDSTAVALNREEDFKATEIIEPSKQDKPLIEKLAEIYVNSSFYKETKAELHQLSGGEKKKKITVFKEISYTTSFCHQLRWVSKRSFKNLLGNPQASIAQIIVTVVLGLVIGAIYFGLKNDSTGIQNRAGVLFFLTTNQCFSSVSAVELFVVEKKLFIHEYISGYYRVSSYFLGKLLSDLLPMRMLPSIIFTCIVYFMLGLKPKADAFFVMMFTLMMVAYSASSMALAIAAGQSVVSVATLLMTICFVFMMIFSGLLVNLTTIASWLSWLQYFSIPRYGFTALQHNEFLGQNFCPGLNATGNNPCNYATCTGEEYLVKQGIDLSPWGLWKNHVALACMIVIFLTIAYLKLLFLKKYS
Protocol: Dose–response curves were fitted by nonlinear regression using the four-parameter or three-parameter logistic equation, whichever was statistically preferred (GraphPad Prism, version 6.0, San Diego, CA, USA).
46 72 hours with the indicated concentrations of drugs.
49 example is shown. Error bars indicate standard deviations.
57 was used as a comparator.
58 tested and fluorescence values in the steady state measured for each concentration. The IC50-values
A representative experiment is depicted.

[1] = parameters: method as in PMID 26260222; conditions: mice; cited from earlier work
[2] = tested on: CYP1A, CYP2B6, CYP2C8, CYP2C9, CYP2C19, CYP2D6, CYP3A; assay: in vitro; conditions: both, human, pooled human liver microsomes, pH 7.4
Protocol: The reaction was initiated by adding a Nicotinamide adenine dinucleotide phosphate (NADPH)-generating system. The reaction was allowed for 10 min and stopped by transferring the reaction mixture to acetonitrile/methanol. Samples were mixed and centrifuged. Supernatants were used for HPLC-MS/MS of the respective metabolite.
Data analysis: Peak areas corresponding to the metabolite were recorded. The percent of control activity was calculated by comparing the peak area in the presence of the test compound to the control samples containing the same solvent. […] The IC50 value (concentration causing a half-maximal inhibition of the control value) was determined by non-linear regression analysis of the concentration–response curve using the Hill equation.

CYP2C8 = CYP2C8 (Homo sapiens, UniProt P10632); assay: biochemical
CYP2C8, sequence (P10632 whole entry): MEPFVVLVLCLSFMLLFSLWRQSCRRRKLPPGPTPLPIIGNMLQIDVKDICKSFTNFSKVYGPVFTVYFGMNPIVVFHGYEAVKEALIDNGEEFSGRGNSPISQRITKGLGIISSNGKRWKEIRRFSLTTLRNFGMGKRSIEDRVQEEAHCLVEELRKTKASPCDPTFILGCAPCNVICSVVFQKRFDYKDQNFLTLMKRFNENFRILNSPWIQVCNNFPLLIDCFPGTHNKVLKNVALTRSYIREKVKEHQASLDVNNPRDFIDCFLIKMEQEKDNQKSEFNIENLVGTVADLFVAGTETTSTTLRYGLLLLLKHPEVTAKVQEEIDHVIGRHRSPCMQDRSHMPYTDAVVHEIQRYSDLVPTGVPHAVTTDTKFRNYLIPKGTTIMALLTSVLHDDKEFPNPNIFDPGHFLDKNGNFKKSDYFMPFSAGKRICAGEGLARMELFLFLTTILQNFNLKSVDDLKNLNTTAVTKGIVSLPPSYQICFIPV

CYP2B6 = assay: CYP induction in human hepatocytes, CYP2B6 mRNA; format: in vitro ADME; conditions: plated human hepatocytes
CYP3A = CYP3A (Homo sapiens, UniProt P08684); assay: in vitro; conditions: both, pooled human liver microsomes, pH 7.4, probe testosterone
CYP3A, sequence (P08684 2-503): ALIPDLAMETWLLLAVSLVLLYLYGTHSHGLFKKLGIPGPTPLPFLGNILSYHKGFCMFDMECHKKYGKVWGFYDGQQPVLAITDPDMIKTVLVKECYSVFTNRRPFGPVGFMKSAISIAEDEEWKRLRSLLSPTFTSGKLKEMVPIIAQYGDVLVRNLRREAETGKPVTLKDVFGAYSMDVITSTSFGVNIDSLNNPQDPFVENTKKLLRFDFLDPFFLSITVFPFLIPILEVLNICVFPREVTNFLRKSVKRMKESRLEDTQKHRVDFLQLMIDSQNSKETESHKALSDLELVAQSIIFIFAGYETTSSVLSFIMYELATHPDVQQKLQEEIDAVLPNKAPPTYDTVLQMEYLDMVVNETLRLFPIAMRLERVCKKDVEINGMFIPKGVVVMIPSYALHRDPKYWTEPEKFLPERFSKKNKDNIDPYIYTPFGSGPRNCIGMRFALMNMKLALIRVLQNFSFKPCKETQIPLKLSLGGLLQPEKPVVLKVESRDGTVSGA

[3] = parameters: method as in PMID 26260222; conditions: cited from earlier work
CYP2C9 = CYP2C9 (Homo sapiens, UniProt P11712); assay: CYP inhibition, CYP2C9; format: in vitro ADME; conditions: Human liver microsomes, diclofenac substrate
CYP2C9, sequence (P11712 whole entry): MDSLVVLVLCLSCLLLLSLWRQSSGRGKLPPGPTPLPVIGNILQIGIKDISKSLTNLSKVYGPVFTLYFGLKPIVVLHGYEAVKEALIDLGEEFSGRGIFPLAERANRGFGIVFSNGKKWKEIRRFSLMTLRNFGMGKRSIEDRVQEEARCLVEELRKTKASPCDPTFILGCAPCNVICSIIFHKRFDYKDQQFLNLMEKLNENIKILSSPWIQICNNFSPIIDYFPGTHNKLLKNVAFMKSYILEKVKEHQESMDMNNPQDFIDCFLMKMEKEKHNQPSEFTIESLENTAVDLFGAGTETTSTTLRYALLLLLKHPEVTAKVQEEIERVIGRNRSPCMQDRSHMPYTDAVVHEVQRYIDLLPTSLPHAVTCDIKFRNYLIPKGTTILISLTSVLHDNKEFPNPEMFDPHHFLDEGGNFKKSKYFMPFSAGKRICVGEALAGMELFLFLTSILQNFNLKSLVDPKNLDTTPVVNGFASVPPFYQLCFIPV

[4] = Donor 1, read-out: Mean Fold Induction of mRNA at 1× 10^−4 M
[5] = Donor 2, read-out: Mean Fold Induction of mRNA at 1× 10^−4 M
[6] = Donor 3, read-out: Mean Fold Induction of mRNA at 1× 10^−4 M

## Nc1nc(-c2ccccc2)nc2[nH]nc(Nc3ccc(C(F)(F)F)cc3)c12 [SCO-201]
CYP1A2; [4]
  fold induction at 2 days: 0.24
CYP1A2; [5]
  fold induction at 2 days: 0.39
CYP1A2; [6]
  fold induction at 2 days: 0.26
ABCG2 (BCRP)
  IC50: 0.175 µM
[1]
  oral activity: orally active
[2]
  IC50 at 10 min: ≥ 100 µM
CYP2C8
  IC50: > 100 µM
CYP2B6; [4]
  fold induction at 2 days: 0.17
CYP2B6; [5]
  fold induction at 2 days: 0.52
CYP2B6; [6]
  fold induction at 2 days: 0.45
CYP3A
  IC50 at 10 min: > 100 µM
[3]
  stability in serum: stable in serum
CYP2C9
  IC50: > 100 µM
